According to US10052331B2, “3-(3H-imidazo[4,5-C]pyridin-2-yl)-1H-pyrazolo[3,4-C]pyridine and therapeutic uses thereof” (Samumed, LLC, priority 2014, dated 2018):

Experiments:
[1] = test system: Wnt activity (Wnt-responsive Sp5 promoter-luciferase reporter in SW480 cells); experiment: Wnt activity screening assay: Sp5-Luc reporter gene in SW480 colon carcinoma cells; format: cell-based; details: Homo sapiens
In short: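 IC50 values come from variable-slope four-parameter fits of luciferase signal normalized to DMSO wells. Stable Sp5-Luc reporter SW480 colon carcinoma cells were exposed to compounds in a 3-fold dilution series (source plates from 10 mM stock) for forty-two hours at 37 °C.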

[2] = test system: primary human fibroblasts derived from IPF patients (LL29 cells); experiment: Inhibition of fibrotic process: αSMA staining in TGF-β1-treated primary human fibroblasts from IPF patients (LL29 cells); format: cell-based; details: Fibroblast, 96 h, LL29 cells treated with TGF-β1 (20 ng/mL), 4 days, 11-point dose-response from 10 μM to 1.87 nM, read-out: Inhibition of fibrosis EC50
Text: The above synthesized compounds were screened using primary human fibroblasts (derived from IPF patients) treated with TGF-β1 to determine their ability to inhibit the fibrotic process.
Primary human fibroblasts derived from IPF patients (LL29 cells) [^1Xiaoqiu Liu, et. al., “Fibrotic Lung Fibroblasts Show Blunted Inhibition by cAMP Due to Deficient cAMP Response Element-Binding Protein Phosphorylation”, Journal of Pharmacology and Experimental Therapeutics (2005), 315(2), 678-687; ^2Watts, K. L., et. al., “RhoA signaling modulates cyclin D1 expression in human lung fibroblasts; implications for idiopathic pulmonary fibrosis”, Respiratory Research (2006), 7(1), 88] were obtained from American Type Culture Collection (ATCC) and expanded in F12 medium supplemented with 15% Fetal Bovine Serum and Penicillin/Streptomycin.
Each compound was dissolved in DMSO as a 10 mM stock and used to prepare compound source plates. Serial dilution (1:2, 11-point dose-response curves from 10 μM to 1.87 nM) and compound transfer was performed using the ECHO 550 (Labcyte, Sunnyvale, Calif.) into 384-well clear bottom assay plates (Greiner Bio-One) with appropriate DMSO backfill for a final DMSO concentration of 0.1%. LL29 cells were plated at 1,500 cells/well in 80 μl/well F12 medium supplemented with 1% Fetal Bovine Serum. One hour after addition of the cells, TGF-β1 (Peprotech; 20 ng/mL) was added to the plates to induce fibrosis (ref. 1 and 2 above). Wells treated with TGF-β1 and containing DMSO were used as controls. Cells were incubated at 37° C. and 5% CO2 for 4 days. Following incubation for 4 days, SYTOX green nucleic acid stain (Life Technologies [Thermo Fisher Scientific]) was added to the wells at a final concentration of 1 uM and incubated at room temperature for 30 min. Cells were then fixed using 4% formaldehyde (Electron Microscopy Sciences), washed 3 times with PBS followed by blocking and permeabilization using 3% Bovine Serum Albumin (BSA; Sigma) and 0.3% Triton X-100 (Sigma) in PBS. Cells were then stained with antibody specific to α-smooth muscle actin (αSMA; Abcam) (ref. 1 and 2 above) in 3% Bovine Serum Albumin (BSA; Sigma) and 0.3% Triton X-100 (Sigma) in PBS, and incubated overnight at 4° C. Cells were then washed 3 times with PBS, followed by incubation with Alexa Flor-647 conjugated secondary antibody (Life Technologies [Thermo Fisher Scientific]) and DAPI at room temperature for 1 hour. Cells were then washed 3 times with PBS and plates were sealed for imaging. αSMA staining was imaged by excitation at 630 nm and emission at 665 nm and quantified using the Compartmental Analysis program on the CellInsight CX5 (Thermo Scientific). Dead or apoptotic cells were excluded from analysis based on positive SYTOX green staining. % of total cells positive for αSMA were counted in each well and normalized to the average of 11 wells treated with TGF-β1 on the same plate using Dotmatics' Studies Software. The normalized averages (fold change over untreated) of 3 replicate wells for each compound concentration were used to create dose-responses curves and EC50 values were calculated using non-linear regression curve fit in the Dotmatics' Studies Software. The EC50 values are reported.

**Q.** `c1cc(-c2cncc3[nH]c(-c4n[nH]c5cnc(-c6cncc(CNCC7CCCC7)c6)cc45)nc23)co1` [Compound 284, 1-Cyclopentyl-N-((5-(3-(7-(furan-3-yl)-3H-imidazo[4,5-c]pyridin-2-yl)-1H-pyrazolo[3,4-c]pyridin-5-yl)pyridin-3-yl)methyl)methanamine] was tested. Which IC50 [1] did it give?
**A.** The IC50 was 0.261 µM.

**Q.** What about the EC50 [2] of the same molecule?
**A.** The EC50 was 0.908 µM.

**Q.** Which results are given for `CN(C)c1cncc(-c2cc3c(-c4nc5c(-c6cccs6)cncc5[nH]4)n[nH]c3cn2)c1` [Compound 293, N,N-Dimethyl-5-(3-(7-(thiophen-2-yl)-3H-imidazo[4,5-c]pyridin-2-yl)-1H-pyrazolo[3,4-c]pyridin-5-yl)pyridin-3-amine]?
**A.** IC50 [1]: 0.319 µM; EC50 [2]: ≤ 0.009 µM

**Q.** Which results are given for `CN(C)Cc1cncc(-c2cc3c(-c4nc5c(-c6cccs6)cncc5[nH]4)n[nH]c3cn2)c1` [Compound 299, N,N-Dimethyl-1-(5-(3-(7-(thiophen-2-yl)-3H-imidazo[4,5-c]pyridin-2-yl)-1H-pyrazolo[3,4-c]pyridin-5-yl)pyridin-3-yl)methanamine]?
**A.** IC50 [1]: 0.588 µM; EC50 [2]: ≤ 0.009 µM

**Q.** With `O=C(Nc1cncc(-c2cc3c(-c4nc5c(-c6cccs6)cncc5[nH]4)n[nH]c3cn2)c1)C1CC1` [Compound 305, N-(5-(3-(7-(Thiophen-2-yl)-3H-imidazo[4,5-c]pyridin-2-yl)-1H-pyrazolo[3,4-c]pyridin-5-yl)pyridin-3-yl)cyclopropanecarboxamide] as the molecule, how does the IC50 [1] read?
**A.** Its IC50 is 0.0351 µM.

**Q.** And the EC50 [2]?
**A.** The EC50 was greater than 10 µM.

**Q.** Which results are given for `FC1(F)CCN(Cc2cncc(-c3cc4c(-c5nc6c(-c7cccs7)cncc6[nH]5)n[nH]c4cn3)c2)C1` [Compound 311, 5-(5-((3,3-Difluoropyrrolidin-1-yl)methyl)pyridin-3-yl)-3-(7-(thiophen-2-yl)-3H-imidazo[4,5-c]pyridin-2-yl)-1H-pyrazolo[3,4-c]pyridine]?
**A.** IC50 [1]: 0.0705 µM; EC50 [2]: 0.254 µM

**Q.** Which results are given for `Fc1ccc(-c2cncc3[nH]c(-c4n[nH]c5cnc(-c6cncc(CN7CCCC7)c6)cc45)nc23)s1` [Compound 326, 3-(7-(5-Fluorothiophen-2-yl)-3H-imidazo[4,5-c]pyridin-2-yl)-5-(5-(pyrrolidin-1-ylmethyl)pyridin-3-yl)-1H-pyrazolo[3,4-c]pyridine]?
**A.** IC50 [1]: 0.772 µM; EC50 [2]: ≤ 0.009 µM

**Q.** With `O=C(Nc1cncc(-c2cc3c(-c4nc5c(-c6ccc(F)s6)cncc5[nH]4)n[nH]c3cn2)c1)C1CCC1` [Compound 332, N-(5-(3-(7-(5-Fluorothiophen-2-yl)-3H-imidazo[4,5-c]pyridin-2-yl)-1H-pyrazolo[3,4-c]pyridin-5-yl)pyridin-3-yl)cyclobutanecarboxamide] as the molecule, how does the IC50 [1] read?
**A.** Its IC50 is 0.0328 µM.

**Q.** And the EC50 [2]?
**A.** Its EC50 is 1.05 µM.

**Q.** With `CCNCc1cncc(-c2cc3c(-c4nc5c(-c6ccc(C)s6)cncc5[nH]4)n[nH]c3cn2)c1` [Compound 344, N-((5-(3-(7-(5-Methylthiophen-2-yl)-3H-imidazo[4,5-c]pyridin-2-yl)-1H-pyrazolo[3,4-c]pyridin-5-yl)pyridin-3-yl)methyl)ethanamine] as the molecule, how does the IC50 [1] read?
**A.** The IC50 was 0.0254 µM.

**Q.** What about the EC50 [2] of the same molecule?
**A.** Its EC50 is 0.06 µM.

**Q.** `Cc1ccc(-c2cncc3[nH]c(-c4n[nH]c5cnc(-c6cncc(NC(=O)C(C)(C)C)c6)cc45)nc23)s1` [Compound 346, N-(5-(3-(7-(5-Methylthiophen-2-yl)-3H-imidazo[4,5-c]pyridin-2-yl)-1H-pyrazolo[3,4-c]pyridin-5-yl)pyridin-3-yl)pivalamide] was tested. Which IC50 [1] did it give?
**A.** Its IC50 is 0.017 µM.

**Q.** What about the EC50 [2] of the same molecule?
**A.** The EC50 was 0.03 µM.

**Q.** How did the IC50 [1] turn out when `Cc1ccc(-c2cncc3[nH]c(-c4n[nH]c5cnc(-c6cncc(NC(=O)C(C)C)c6)cc45)nc23)s1` [Compound 347, N-(5-(3-(7-(5-Methylthiophen-2-yl)-3H-imidazo[4,5-c]pyridin-2-yl)-1H-pyrazolo[3,4-c]pyridin-5-yl)pyridin-3-yl)isobutyramide] was run?
**A.** Its IC50 is 0.0075 µM.

**Q.** What about the EC50 [2] of the same molecule?
**A.** Its EC50 is no more than 0.009 µM.

**Q.** How did the IC50 [1] turn out when `Cc1ccc(-c2cncc3[nH]c(-c4n[nH]c5cnc(-c6cncc(CN7CCCCC7)c6)cc45)nc23)s1` [Compound 353, 3-(7-(5-Methylthiophen-2-yl)-3H-imidazo[4,5-c]pyridin-2-yl)-5-(5-(piperidin-1-ylmethyl)pyridin-3-yl)-1H-pyrazolo[3,4-c]pyridine] was run?
**A.** The IC50 was 1.04 µM.

**Q.** What about the EC50 [2] of the same molecule?
**A.** Its EC50 is 0.251 µM.

**Q.** `CCCC(=O)Nc1cncc(-c2cc3c(-c4nc5c(-c6ccc(C)s6)cncc5[nH]4)n[nH]c3cn2)c1` [Compound 355, N-(5-(3-(7-(5-Methylthiophen-2-yl)-3H-imidazo[4,5-c]pyridin-2-yl)-1H-pyrazolo[3,4-c]pyridin-5-yl)pyridin-3-yl)butyramide] was tested. Which IC50 [1] did it give?
**A.** Its IC50 is 0.0065 µM.

**Q.** What about the EC50 [2] of the same molecule?
**A.** Its EC50 is 0.148 µM.

**Q.** Which IC50 [1] does the source give for `CCCCC(=O)Nc1cncc(-c2cc3c(-c4nc5c(-c6ccc(C)s6)cncc5[nH]4)n[nH]c3cn2)c1` [Compound 356, N-(5-(3-(7-(5-Methylthiophen-2-yl)-3H-imidazo[4,5-c]pyridin-2-yl)-1H-pyrazolo[3,4-c]pyridin-5-yl)pyridin-3-yl)pentanamide] here?
**A.** Its IC50 is 0.0176 µM.

**Q.** And the EC50 [2]?
**A.** Its EC50 is 0.11 µM.

**Q.** `Cc1ccc(-c2cncc3[nH]c(-c4n[nH]c5cnc(-c6cncc(NC(=O)C7CCCC7)c6)cc45)nc23)s1` [Compound 359, N-(5-(3-(7-(5-Methylthiophen-2-yl)-3H-imidazo[4,5-c]pyridin-2-yl)-1H-pyrazolo[3,4-c]pyridin-5-yl)pyridin-3-yl)cyclopentanecarboxamide] was tested. Which IC50 [1] did it give?
**A.** Its IC50 is 0.0335 µM.

**Q.** And the EC50 [2]?
**A.** Its EC50 is 0.689 µM.

**Q.** How did the IC50 [1] turn out when `Cc1ccncc1-c1cc2c(-c3nc4c(-c5cc(F)cc(CNS(C)(=O)=O)c5)cncc4[nH]3)n[nH]c2cn1` [Compound 395, N-(3-Fluoro-5-(2-(5-(4-methylpyridin-3-yl)-1H-pyrazolo[3,4-c]pyridin-3-yl)-3H-imidazo[4,5-c]pyridin-7-yl)benzyl)methanesulfonamide] was run?
**A.** The IC50 was 0.0467 µM.

**Q.** And the EC50 [2]?
**A.** Its EC50 is no more than 0.009 µM.

**Q.** Which results are given for `CS(=O)(=O)NCc1cc(F)cc(-c2cncc3[nH]c(-c4n[nH]c5cnc(-c6cncc(NC(=O)c7ccccc7)c6)cc45)nc23)c1` [Compound 401, N-(5-(3-(7-(3-Fluoro-5-(methylsulfonamidomethyl)phenyl)-3H-imidazo[4,5-c]pyridin-2-yl)-1H-pyrazolo[3,4-c]pyridin-5-yl)pyridin-3-yl)benzamide]?
**A.** IC50 [1]: 0.774 µM; EC50 [2]: ≥ 9.99 µM

**Q.** Which results are given for `CS(=O)(=O)NCc1cc(F)cc(-c2cncc3[nH]c(-c4n[nH]c5cnc(-c6cncc(NC(=O)C7CCC7)c6)cc45)nc23)c1` [Compound 410, N-(5-(3-(7-(3-Fluoro-5-(methylsulfonamidomethyl)phenyl)-3H-imidazo[4,5-c]pyridin-2-yl)-1H-pyrazolo[3,4-c]pyridin-5-yl)pyridin-3-yl)cyclobutanecarboxamide]?
**A.** IC50 [1]: 0.0296 µM; EC50 [2]: 0.475 µM

**Q.** What does the source list for `CS(=O)(=O)NCc1cc(F)cc(-c2cncc3[nH]c(-c4n[nH]c5cnc(-c6cncc(CNCc7ccccc7)c6)cc45)nc23)c1` [Compound 413, N-(3-(2-(5-(5-((Benzylamino)methyl)pyridin-3-yl)-1H-pyrazolo[3,4-c]pyridin-3-yl)-3H-imidazo[4,5-c]pyridin-7-yl)-5-fluorobenzyl)methanesulfonamide]?
**A.** IC50 [1]: 0.058 µM; EC50 [2]: ≥ 9.99 µM

**Q.** Which results are given for `CS(=O)(=O)NCc1cc(F)cc(-c2cncc3[nH]c(-c4n[nH]c5cnc(-c6cncnc6)cc45)nc23)c1` [Compound 416, N-(3-Fluoro-5-(2-(5-(pyrimidin-5-yl)-1H-pyrazolo[3,4-c]pyridin-3-yl)-3H-imidazo[4,5-c]pyridin-7-yl)benzyl)methanesulfonamide]?
**A.** IC50 [1]: > 10 µM; EC50 [2]: ≥ 9.99 µM

**Q.** How did the IC50 [1] turn out when `CN(C)CCNc1cc(F)cc(-c2cncc3[nH]c(-c4n[nH]c5cnc(-c6cncc(N(C)C)c6)cc45)nc23)c1` [Compound 423] was run?
**A.** Its IC50 is 0.482 µM.

**Q.** And the EC50 [2]?
**A.** The EC50 was 2.03 µM.
